# Patent US20250177351A1, “ISOINDOLINE COMPOSITIONS AND METHODS FOR TREATING NEURODEGENERATIVE DISEASE” (Cognition Therapeutics, Inc., priority 2022, published 2025)
# How the values were obtained:
# CSF proteins = experiment: Phase 1b/2a trial: CSF protein expression by LC/MSMS; type: in vivo, human
# Experimental: COG0102 clinical trial: This trial (ClinicalTrials.gov NCT02907567) was a randomized, double-blind, placebo-controlled clinical trial in mild to moderate Alzheimer's patients (MMSE 18-26) (See FIG. 1 for clinical trial design). The trial was conducted at six sites in Australia. Patients were randomized into placebo (n=5) or CT1812-treated groups: 90 mg (n=4), 280 mg (n=5) or 560 mg (n=5) and treated once daily for 28 days. Clinical chemistry was done at Sydpath (Sydney, AU). Pharmacokinetics were done at CPR Pharma Services (Adelaide, AU). Cerebrospinal fluid samples were taken at screening and day 21-28 of treatment and aliquoted. Plasma samples were taken at screening or Day 1 (one sample) and day 14-28, then spun down to separate plasma and aliquoted. One set of CSF samples was analyzed for Alzheimer's disease biomarkers; protein measurements (Aβ42, Aβ40, total tau, tau phosphorylated at threonine 181 (phosphorylated tau), NFL and neurogranin) were performed using commercially available ELISA assays from Fujirebio according to the manufacturer's instructions (INNOTEST β-AMYLOID(1-42), INNOTEST β-AMYLOID(1-40), INNOTEST hTau Ag, INNOTEST PHOSPHO-TAU(181P), Uman Diagnostics NFL assay). Neurogranin was measured with a sandwich ELISA method using antibodies Ng2 and Ng22 developed at the University of Gotteborg (Kvartsberg et al. 2015). Identical aliquots of CSF, and plasma were analyzed for protein expression changes via LC/MSMS at Caprion (see below).
# LC MSMS biomarker discovery: Matched screening and day 28 plasma and CSF samples were analyzed by LC/MSMS at Caprion Biosciences Inc. Plasma was depleted of high and medium abundance proteins using a commercial immunoaffinity column, IgY14-Supermix (Sigma). CSF was depleted of only 14 high abundance proteins using MARS-14 (Agilent). All samples were digested with trypsin and plasma samples were fractionated by strong cation exchange chromatography (3 fractions). Both CSF and plasma samples were analyzed using a NanoAcquity UPLC coupled to a Q Exactive MS. […] The 12 most intense peaks per survey scan with charge states 2-8 fragmented and scanned with a mass range from 200 to 2000 m/z at a resolution of 17,500. Raw spectrometer data files for each LC-MS run were aligned independently using Elucidator software (Rosetta Biosoftware). The MS/MS spectra were matched to corresponding peptide sequences found in the Uniprot Human protein database (January 2017) using Mascot software, allowing for up to 2 missed cleavages, a peptide tolerance of 20 ppm, and an MS/MS tolerance of 0.05 Da. Outlier detection was performed by determining the average log-intensity of all isotope groups (IG) over injection order for all samples. Samples with an average value greater than 2 standard deviations from the mean were flagged for investigation. Following data transformation and normalization, expression analysis of the identified isotope groups was performed and the statistical significance of each comparison was assessed with a parametric, linear mixed model (LMM) and a non-parametric Wilcoxon ranked test (ranked p-values). Expression analysis was also performed at the peptide and protein levels, which used the same methodology as above, but applied to peptide/protein intensities, derived by rolling-up the corresponding isotope group intensities. Isotope groups not detected in at least half of the samples in either of the two groups being compared were not used for the roll-up.
# Heat map analysis: The difference in protein abundance between day 28 and baseline for each sample was normalized for graphical comparison by converting to z-score. First, the mean and standard deviation (SD) of day 28—baseline values were calculated across all paired samples for each protein. Then, for each patient's paired sample fold change, the difference from the mean was determined and divided by the SD to derive the z-score. […]
# [1] = Aged transgenic mouse models of AD; type: in vivo
smiles,measurement,setting,value
CC(C)(C)Oc1cc(CCC(C)(C)N2Cc3ccc(S(C)(=O)=O)cc3C2)ccc1O [CT1812],"Synaptotagmin-1 expression in CSF, decrease in CT1812-treated vs. placebo","CSF proteins; AD patients, 28 days",63%
same,number of CSF proteins changed differentially vs placebo,"CSF proteins; AD patients, 28 days, p<0.05",30
same,FC (Treated) AFM,"CSF proteins; CSF, 28 days vs screening",0.94
same,FC (Treated) ANGPTL2,"CSF proteins; CSF, 28 days vs screening",0.80
same,FC (Treated) CNTN1,"CSF proteins; CSF, 28 days vs screening",0.97
same,FC (Treated) EFNB1,"CSF proteins; CSF, 28 days vs screening",0.97
same,FC (Treated) EPHA4,"CSF proteins; CSF, 28 days vs screening",0.94
same,FC (Treated) MBL2,"CSF proteins; CSF, 28 days vs screening",0.75
same,FC (Treated) NPPC,"CSF proteins; CSF, 28 days vs screening",0.90
same,FC (Treated) P4HB,"CSF proteins; CSF, 28 days vs screening",1.10
same,FC (Treated) RBP4,"CSF proteins; CSF, 28 days vs screening",0.82
same,FC (Treated) ROBO1,"CSF proteins; CSF, 28 days vs screening",0.96
same,FC (Treated) SEMA3F,"CSF proteins; CSF, 28 days vs screening",1.40
same,FC (Treated) SERPINA4,"CSF proteins; CSF, 28 days vs screening",0.88
same,FC (Treated) SMPDL3B,"CSF proteins; CSF, 28 days vs screening",0.97
same,FC (Treated) SYT1,"CSF proteins; CSF, 28 days vs screening",0.78
same,FC (Treated) TPII,"CSF proteins; CSF, 28 days vs screening",0.90
same,FC (Treated) YWHAB,"CSF proteins; CSF, 28 days vs screening",0.90
same,FC (Treated vs. Placebo) AFM,"CSF proteins; CSF, 28 days, p-value 0.002, rank p-value 0.003",0.84
same,FC (Treated vs. Placebo) SYT1,"CSF proteins; CSF, 28 days, p-value 0.011, rank p-value 0.011",0.63
same,FC (Treated vs. Placebo) RBP4,"CSF proteins; CSF, 28 days, p-value 0.018, rank p-value 0.011",0.81
same,FC (Treated vs. Placebo) MBL2,"CSF proteins; CSF, 28 days, p-value 0.020, rank p-value 0.006, FC>10 may be artifact",>10
same,FC (Treated vs. Placebo) TNC,"CSF proteins; CSF, 28 days, p-value 0.029, rank p-value 0.011",0.91
same,FC (Treated vs. Placebo) EFNB1,"CSF proteins; CSF, 28 days, p-value 0.029, rank p-value 0.034",0.93
same,FC (Treated vs. Placebo) EPHA4,"CSF proteins; CSF, 28 days, p-value 0.035, rank p-value 0.076",0.93
same,FC (Treated vs. Placebo) MDGA2,"CSF proteins; CSF, 28 days, p-value 0.036, rank p-value 0.106",0.71
same,FC (Treated vs. Placebo) YWHAB,"CSF proteins; CSF, 28 days, p-value 0.038, rank p-value 0.148",0.81
same,FC (Treated vs. Placebo) ROBO1,"CSF proteins; CSF, 28 days, p-value 0.042, rank p-value 0.106",0.82
same,FC (Treated vs. Placebo) TPII,"CSF proteins; CSF, 28 days, p-value 0.044, rank p-value 0.076",0.87
same,FC (Treated vs. Placebo) CD14,"CSF proteins; CSF, 28 days, p-value 0.046, rank p-value 0.034",1.20
same,FC (Treated vs. Placebo) SERPINA4,"CSF proteins; CSF, 28 days, p-value 0.047, rank p-value 0.020",0.79
same,FC (Treated vs. Placebo) CNTN1,"CSF proteins; CSF, 28 days, p-value 0.048, rank p-value 0.076",0.81
same,FC (Treated vs. Placebo) ANGPTL2,"CSF proteins; CSF, 28 days, p-value 0.050, rank p-value 0.148",0.69
same,FC (Treated vs. Placebo) NPPC,"CSF proteins; CSF, 28 days, p-value 0.060, rank p-value 0.020",0.91
same,cognitive performance,[1]; aged transgenic mouse models of AD,restoring normal cognitive performance
same,inflammatory protein expression in CSF,"[1]; chronic treatment of aged transgenic mice, efficacious doses, LC/MSMS",significantly reduces
